In data set [1] the test system is T. brucei brucei parasites (Lister 427 strain). Nature of the data set: Dose response growth inhibition assay (resazurin, 72 h). The class given is cell-based. The settings on record: Trypanosoma brucei; read-out: T brucei pEC50 (converted). For orientation: Resazurin is reduced to fluorescent resorufin, in cell work by metabolically active cells.
Data set [2] in a line: CLND kinetic solubility assay. Format: physicochemical. The settings on record: phosphate buffered saline, pH 7.4, aqueous buffer, kinetic from dmso stock; Measured; read-out: Aq Sol. As for the experimental part: 5 µL of 10 mM DMSO stock solution was diluted to 100 µL with pH 7.4 phosphate buffered saline, equilibrated for 1 hour at room temperature, filtered through Millipore MultiscreenHTS-PCF filter plates (MSSL BPC). The filtrate was quantified by suitably calibrated flow injection Chemi-Luminescent Nitrogen Detection.

Data set [3] is described as follows: ChromlogD assay.
The target of data set [4] is Cytochrome P450 (CYP450) (Homo sapiens, UniProt P08684). Description: Cytochrome P450 inhibition profile. Format: in vitro ADME. As to conditions: Measured. The procedure:
The P450 inhibition profile of the inhibitors was determined as previously described.

Data set [5] addresses T1, P38A (Homo sapiens, UniProt Q16539).
T1 construct: variant as stated: P38A
Description: biochemical. From the text:
(§1) These kinases were chosen for general selectivity screening owing to their broad representation of the human kinome.

For data set [6], the target named is JNK1 (Homo sapiens, UniProt P45983). Nature of the data set: Human kinase selectivity screening: JNK1. Format: biochemical. The settings on record: read-out: JNK1 pIC50 values (converted).
Text: as §1

The target of data set [7] is LCK (Homo sapiens, UniProt P06239). Nature of the data set: Human kinase selectivity screening: LCK. The class given is biochemical. The settings on record: read-out: LCK pIC50 values (converted).
Text: as §1

Data set [8] has as its target T2, IKK2 (Homo sapiens, UniProt O14920).
T2 sequence (O14920 1-756): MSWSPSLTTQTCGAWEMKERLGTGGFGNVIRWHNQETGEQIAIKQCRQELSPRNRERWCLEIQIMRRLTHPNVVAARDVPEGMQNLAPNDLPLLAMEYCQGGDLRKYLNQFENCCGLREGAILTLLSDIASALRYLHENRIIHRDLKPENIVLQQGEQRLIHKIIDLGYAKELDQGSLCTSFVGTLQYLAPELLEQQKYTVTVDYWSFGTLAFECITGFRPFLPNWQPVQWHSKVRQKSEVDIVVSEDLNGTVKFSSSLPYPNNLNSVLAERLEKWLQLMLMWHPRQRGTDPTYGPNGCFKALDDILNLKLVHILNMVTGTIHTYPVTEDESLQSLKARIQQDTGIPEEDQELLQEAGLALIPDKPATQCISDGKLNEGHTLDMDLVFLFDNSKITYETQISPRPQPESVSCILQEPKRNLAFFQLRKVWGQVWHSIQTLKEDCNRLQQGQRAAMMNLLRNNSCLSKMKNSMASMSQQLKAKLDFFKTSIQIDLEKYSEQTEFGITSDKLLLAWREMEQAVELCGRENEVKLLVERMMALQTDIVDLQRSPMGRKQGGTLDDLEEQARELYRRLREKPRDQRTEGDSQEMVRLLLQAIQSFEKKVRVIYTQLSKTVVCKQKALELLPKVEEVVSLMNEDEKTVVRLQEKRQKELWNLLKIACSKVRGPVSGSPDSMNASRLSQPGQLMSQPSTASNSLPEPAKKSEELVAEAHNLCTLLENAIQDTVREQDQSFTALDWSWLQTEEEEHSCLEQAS
Nature of the data set: Human kinase selectivity screening: IKK2. The settings on record: read-out: IKK2 pIC50 values (converted). Format: biochemical.
Text: as §1

Data set [9] has as its target ROCK1 (Homo sapiens, UniProt Q13464). Nature of the data set: Human kinase selectivity screening: ROCK1. Format: biochemical. The settings on record: read-out: ROCK1 pIC50 values (converted).
Text: as §1

The target in data set [10] is AURB (Homo sapiens, UniProt Q96GD4). Nature of the data set: Human kinase selectivity screening: AURB. As to conditions: read-out: AURB pIC50 values (converted). The class given is biochemical.
Text: as §1

Data set [11] concerns the target PI3KA (Homo sapiens, UniProt P42336). Description: Human kinase selectivity screening: PI3KA. The settings on record: read-out: PI3KA pIC50 values (converted). Format: biochemical.
Text: as §1

The target of data set [12] is EGFR (Homo sapiens, UniProt P00533). Description: Human kinase selectivity screening: EGFR. The class given is biochemical. As to conditions: read-out: EGFR pIC50 values (converted).
Text: as §1

Data set [13] deals with LRRK2 (Homo sapiens, UniProt Q5S007). Nature of the data set: Human kinase selectivity screening: LRRK2. The class given is biochemical. As to conditions: read-out: LRRK2 pIC50 values (converted).
Text: as §1

Setting [14] is: CYP3A4, VR substrate, read-out: CYP3A4VR pXC50 (converted).
The mark [15] stands for this setting: CYP3A4, VG substrate, read-out: CYP3A4VG pXC50 (converted).

Experimental findings from article PMC4207660, “Identification and Characterization of Hundreds of Potent and Selective Inhibitors of Trypanosoma brucei Growth from a Kinase-Targeted Library Screening Campaign” (PLoS Neglected Tropical Diseases, 2014) are described below.

Converted amounts (≈) assume the structure as drawn. Where two headings read alike, the source gives them in different places. A value given as a limit tells only on which side of the number the result lay.

Chain of LRRK2 (Q5S007 whole entry): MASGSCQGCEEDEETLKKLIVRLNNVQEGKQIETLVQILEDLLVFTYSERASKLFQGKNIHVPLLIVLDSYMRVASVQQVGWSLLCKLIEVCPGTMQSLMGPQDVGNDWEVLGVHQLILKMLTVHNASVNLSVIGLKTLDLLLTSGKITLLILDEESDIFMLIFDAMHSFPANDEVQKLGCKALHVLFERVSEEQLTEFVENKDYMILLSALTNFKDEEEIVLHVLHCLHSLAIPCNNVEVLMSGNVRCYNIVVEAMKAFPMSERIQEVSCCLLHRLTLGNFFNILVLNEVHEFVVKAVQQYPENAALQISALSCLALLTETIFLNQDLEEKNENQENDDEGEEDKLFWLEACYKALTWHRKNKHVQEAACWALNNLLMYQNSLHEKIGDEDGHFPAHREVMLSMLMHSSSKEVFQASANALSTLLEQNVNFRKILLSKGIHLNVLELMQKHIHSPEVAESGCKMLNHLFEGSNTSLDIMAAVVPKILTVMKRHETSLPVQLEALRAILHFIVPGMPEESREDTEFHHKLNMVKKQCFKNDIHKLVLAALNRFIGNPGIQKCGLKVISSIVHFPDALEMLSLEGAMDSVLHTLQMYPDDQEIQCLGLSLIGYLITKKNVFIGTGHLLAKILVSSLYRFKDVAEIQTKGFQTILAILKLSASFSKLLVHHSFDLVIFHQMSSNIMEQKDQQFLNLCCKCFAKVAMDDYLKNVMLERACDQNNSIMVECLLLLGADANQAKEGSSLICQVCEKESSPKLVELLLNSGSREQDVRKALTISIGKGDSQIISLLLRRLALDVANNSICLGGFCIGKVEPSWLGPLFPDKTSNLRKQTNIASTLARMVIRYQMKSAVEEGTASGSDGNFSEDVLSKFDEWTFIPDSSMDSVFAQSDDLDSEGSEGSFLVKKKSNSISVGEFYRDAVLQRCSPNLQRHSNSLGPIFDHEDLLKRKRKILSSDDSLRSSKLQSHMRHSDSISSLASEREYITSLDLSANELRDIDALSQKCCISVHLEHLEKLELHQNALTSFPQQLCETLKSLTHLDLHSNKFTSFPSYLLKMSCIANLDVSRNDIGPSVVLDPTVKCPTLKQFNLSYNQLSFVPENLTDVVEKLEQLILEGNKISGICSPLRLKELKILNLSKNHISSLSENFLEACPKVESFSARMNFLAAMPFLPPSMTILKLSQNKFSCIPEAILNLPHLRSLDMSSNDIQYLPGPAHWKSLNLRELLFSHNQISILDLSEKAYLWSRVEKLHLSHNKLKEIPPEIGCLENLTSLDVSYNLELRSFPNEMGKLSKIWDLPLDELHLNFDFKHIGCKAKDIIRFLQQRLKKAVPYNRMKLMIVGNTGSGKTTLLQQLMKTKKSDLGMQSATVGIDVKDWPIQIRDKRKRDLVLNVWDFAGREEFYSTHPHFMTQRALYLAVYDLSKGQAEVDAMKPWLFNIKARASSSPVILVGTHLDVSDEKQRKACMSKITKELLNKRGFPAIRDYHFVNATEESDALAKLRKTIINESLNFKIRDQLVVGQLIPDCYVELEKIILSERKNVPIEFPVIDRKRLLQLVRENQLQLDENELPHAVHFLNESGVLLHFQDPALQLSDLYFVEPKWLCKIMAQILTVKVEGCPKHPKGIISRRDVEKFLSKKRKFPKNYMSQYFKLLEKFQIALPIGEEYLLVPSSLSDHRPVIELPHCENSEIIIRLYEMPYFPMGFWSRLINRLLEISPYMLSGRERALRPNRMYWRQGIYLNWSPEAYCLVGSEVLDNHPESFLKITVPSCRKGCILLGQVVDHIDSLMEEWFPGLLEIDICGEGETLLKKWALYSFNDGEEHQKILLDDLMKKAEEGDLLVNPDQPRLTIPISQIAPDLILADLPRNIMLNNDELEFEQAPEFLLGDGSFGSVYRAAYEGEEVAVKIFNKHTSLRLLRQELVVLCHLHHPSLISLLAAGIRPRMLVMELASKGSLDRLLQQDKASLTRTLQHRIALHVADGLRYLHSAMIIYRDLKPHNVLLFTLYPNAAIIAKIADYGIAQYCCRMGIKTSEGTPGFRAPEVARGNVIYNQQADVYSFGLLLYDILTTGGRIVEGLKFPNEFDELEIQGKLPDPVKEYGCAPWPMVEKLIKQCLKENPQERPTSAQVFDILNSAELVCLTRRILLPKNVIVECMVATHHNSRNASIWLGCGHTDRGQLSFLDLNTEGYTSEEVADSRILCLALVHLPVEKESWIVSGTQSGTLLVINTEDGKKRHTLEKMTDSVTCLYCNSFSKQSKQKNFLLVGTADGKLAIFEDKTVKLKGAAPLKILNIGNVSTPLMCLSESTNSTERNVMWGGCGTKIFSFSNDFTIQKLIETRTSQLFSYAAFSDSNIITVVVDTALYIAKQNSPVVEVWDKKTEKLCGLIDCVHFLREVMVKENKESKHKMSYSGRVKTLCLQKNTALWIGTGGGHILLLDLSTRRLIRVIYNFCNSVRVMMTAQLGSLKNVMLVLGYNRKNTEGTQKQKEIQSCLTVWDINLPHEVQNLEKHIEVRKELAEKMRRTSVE
Chain of AURB (Q96GD4 whole entry): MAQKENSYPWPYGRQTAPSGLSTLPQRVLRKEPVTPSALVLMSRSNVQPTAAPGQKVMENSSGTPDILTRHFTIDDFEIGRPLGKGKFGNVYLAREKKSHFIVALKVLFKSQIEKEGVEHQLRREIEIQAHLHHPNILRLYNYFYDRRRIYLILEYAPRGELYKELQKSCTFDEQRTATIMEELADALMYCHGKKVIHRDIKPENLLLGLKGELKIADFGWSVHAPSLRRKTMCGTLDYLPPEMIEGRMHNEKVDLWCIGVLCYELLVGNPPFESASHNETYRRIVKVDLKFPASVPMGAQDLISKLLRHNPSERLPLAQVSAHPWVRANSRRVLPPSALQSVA
Chain of Cytochrome P450 (CYP450) (P08684 2-503 limits assumed): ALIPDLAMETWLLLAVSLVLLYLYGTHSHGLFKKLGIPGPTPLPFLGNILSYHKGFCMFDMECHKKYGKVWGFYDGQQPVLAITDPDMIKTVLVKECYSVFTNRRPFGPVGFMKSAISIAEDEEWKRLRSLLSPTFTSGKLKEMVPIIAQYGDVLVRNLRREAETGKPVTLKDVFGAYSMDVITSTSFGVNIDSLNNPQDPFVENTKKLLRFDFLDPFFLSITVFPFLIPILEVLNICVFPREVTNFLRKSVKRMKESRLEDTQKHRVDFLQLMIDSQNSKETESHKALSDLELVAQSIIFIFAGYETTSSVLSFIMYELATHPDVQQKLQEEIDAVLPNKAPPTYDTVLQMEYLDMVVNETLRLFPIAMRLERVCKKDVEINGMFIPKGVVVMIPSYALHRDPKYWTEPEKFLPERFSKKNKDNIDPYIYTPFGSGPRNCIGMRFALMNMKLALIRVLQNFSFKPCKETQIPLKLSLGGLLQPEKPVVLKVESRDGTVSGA
Chain of LCK (P06239 whole entry): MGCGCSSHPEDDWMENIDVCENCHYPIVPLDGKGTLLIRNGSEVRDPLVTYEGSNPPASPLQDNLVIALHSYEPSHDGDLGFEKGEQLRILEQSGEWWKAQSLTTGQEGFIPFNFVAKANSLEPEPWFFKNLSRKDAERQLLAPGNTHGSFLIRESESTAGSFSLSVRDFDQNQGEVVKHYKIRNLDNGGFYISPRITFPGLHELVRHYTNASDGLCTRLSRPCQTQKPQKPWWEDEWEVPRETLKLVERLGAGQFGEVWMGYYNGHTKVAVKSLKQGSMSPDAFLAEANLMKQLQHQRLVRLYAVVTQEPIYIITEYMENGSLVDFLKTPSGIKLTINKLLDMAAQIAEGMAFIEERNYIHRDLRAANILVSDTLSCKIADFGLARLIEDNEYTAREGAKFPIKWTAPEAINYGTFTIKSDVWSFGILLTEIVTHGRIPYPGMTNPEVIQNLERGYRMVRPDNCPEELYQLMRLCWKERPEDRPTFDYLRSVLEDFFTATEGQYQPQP
Chain of EGFR (P00533 25-1210): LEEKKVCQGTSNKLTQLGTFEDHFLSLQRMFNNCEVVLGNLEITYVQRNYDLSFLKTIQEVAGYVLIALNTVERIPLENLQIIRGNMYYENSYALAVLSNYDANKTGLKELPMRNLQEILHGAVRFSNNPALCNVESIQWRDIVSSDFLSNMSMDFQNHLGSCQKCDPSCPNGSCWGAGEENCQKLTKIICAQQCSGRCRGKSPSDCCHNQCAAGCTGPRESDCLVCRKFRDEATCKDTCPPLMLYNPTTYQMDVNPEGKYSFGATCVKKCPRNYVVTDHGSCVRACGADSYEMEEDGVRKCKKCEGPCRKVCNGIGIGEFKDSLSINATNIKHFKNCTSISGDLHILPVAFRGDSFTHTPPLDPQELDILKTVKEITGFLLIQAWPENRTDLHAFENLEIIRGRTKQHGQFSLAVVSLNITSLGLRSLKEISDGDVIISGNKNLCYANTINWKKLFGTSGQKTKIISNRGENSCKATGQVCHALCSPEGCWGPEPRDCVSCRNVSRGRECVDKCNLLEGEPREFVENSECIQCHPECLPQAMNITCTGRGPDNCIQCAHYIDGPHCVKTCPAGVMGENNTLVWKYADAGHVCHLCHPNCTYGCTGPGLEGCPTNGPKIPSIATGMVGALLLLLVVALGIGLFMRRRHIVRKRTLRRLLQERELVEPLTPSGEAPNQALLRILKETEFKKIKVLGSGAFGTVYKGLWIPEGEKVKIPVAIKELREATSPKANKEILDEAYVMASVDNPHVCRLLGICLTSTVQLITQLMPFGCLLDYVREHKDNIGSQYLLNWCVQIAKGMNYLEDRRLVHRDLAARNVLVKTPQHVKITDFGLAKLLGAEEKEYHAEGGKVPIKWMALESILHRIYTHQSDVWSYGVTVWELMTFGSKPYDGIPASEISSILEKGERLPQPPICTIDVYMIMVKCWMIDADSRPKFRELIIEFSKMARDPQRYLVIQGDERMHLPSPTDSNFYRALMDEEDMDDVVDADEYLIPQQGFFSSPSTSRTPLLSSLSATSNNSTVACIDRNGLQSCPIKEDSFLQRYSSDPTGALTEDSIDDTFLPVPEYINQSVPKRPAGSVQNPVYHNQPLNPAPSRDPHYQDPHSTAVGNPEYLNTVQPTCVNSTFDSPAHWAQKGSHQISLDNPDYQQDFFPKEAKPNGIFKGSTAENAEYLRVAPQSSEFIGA

Turning to `CN(C)Cc1ccc(-c2[nH]c3ncc(C#N)cc3c2-c2ccccc2)cc1` [NEU-0001206], the EC50 in data set [1] was 100 nM. The solubility kinetic at 1 h in data set [2] came to 17 µM (≈ 5.99 µg/mL). This molecule also had a PFI in [3] of 7.88. Besides, the IC50 in data set [4] (setting [14]) is more than 50100 nM; in data set [5], more than 25100 nM; in [6], more than 25100 nM; in [7] it was 50.1 nM; in data set [8], more than 25100 nM; in [9], 12600 nM. The IC50 in data set [10] is 39.8 nM; in data set [11] it was more than 25100 nM; in [12] it was 2510 nM; in data set [13] it was 126 nM.
As for `Cn1cc(-c2cnc3[nH]cc(-c4cccc(C#N)c4)c3c2)cn1` [NEU-0001207], the EC50 in data set [1] is 100 nM. Besides, the solubility kinetic at 1 h in data set [2] came to 12 µM (≈ 3.59 µg/mL). The same molecule displayed a PFI in data set [3] of 7.84. Moreover, the IC50 in data set [4] (setting [15]) is 1260 nM; in [4] (setting [14]), 20000 nM; in [5], more than 25100 nM; in data set [6], 501 nM; in [7] it was 2510 nM; in data set [8], 2000 nM. Besides, the IC50 is 794 nM in [9]; 1260 nM in [10]; 3980 nM in data set [11]; 5010 nM in data set [12]; 79.4 nM in data set [13].
In the case of `Cc1cc(Nc2cc(C3CC3)[nH]n2)nc(N2CCCCC2)n1` [NEU-0001127], the EC50 in data set [1] was 31.6 nM. For the same molecule, in data set [2], the solubility kinetic at 1 h was found to be 265 µM (≈ 79.1 µg/mL). In data set [3], the PFI is recorded as 6.13. Further, the IC50 is 10000 nM in [4] (setting [15]); more than 50100 nM in data set [4] (setting [14]); more than 25100 nM in data set [5]; 1000 nM in data set [6]; 1000 nM in data set [7]; more than 25100 nM in data set [8]. Also, the IC50 in data set [9] was 20000 nM; in [10], 158 nM; in data set [11], more than 25100 nM; in [12] it was more than 25100 nM; in data set [13], 3980 nM.
As for `O=C(Nc1ccc(-c2ccnc3[nH]ccc23)s1)C1(Cc2ccccc2)CCCNC1` (stereo not shown) [NEU-0001240], in data set [1], the EC50 was 0.794 nM. In addition, the solubility kinetic at 1 h in [2] was found to be 107 µM (≈ 44.6 µg/mL). This molecule returned a PFI in data set [3] of 7.26. Besides, the IC50 is 1260 nM in data set [4] (setting [15]); 1580 nM in data set [4] (setting [14]); more than 25100 nM in data set [5]; more than 25100 nM in data set [6]; 1580 nM in data set [7]; 501 nM in data set [8]. For the same molecule, the IC50 in data set [9] is 6.31 nM; in data set [10] it was 0.501 nM; in data set [11], more than 25100 nM; in data set [12], more than 25100 nM; in data set [13], 316 nM.
Consider `CCCNc1nc(Nc2cnn(C)c2)c2c(=O)[nH]ccc2n1` [NEU-0001187], for which, in data set [1], the EC50 is 79.4 nM. The solubility kinetic at 1 h in data set [2] was found to be 252 µM (≈ 75.4 µg/mL). The PFI in data set [3] is on record as 5.43. In addition, the IC50 in [4] (setting [15]) is 3980 nM; in data set [4] (setting [14]), more than 50100 nM; in data set [5], more than 25100 nM; in [6], 501 nM; in data set [7] it was 200 nM; in data set [8], 3980 nM. Moreover, the IC50 was 1260 nM in data set [9]; 7.94 nM in data set [10]; more than 25100 nM in data set [11]; 1260 nM in data set [12]; 15.8 nM in data set [13].
Turning to `O=S1(=O)Cc2ccc(Nc3nccc(-c4ccc(F)cc4)n3)cc2C1` [NEU-0001142], the EC50 in data set [1] is 20 nM. In data set [2], the solubility kinetic at 1 h came out at 1 µM (≈ 0.355 µg/mL). In addition, the PFI in data set [3] came out at 7.11. Also, the IC50 in data set [4] (setting [15]) is 2510 nM; in data set [4] (setting [14]), 10000 nM; in data set [5], 25100 nM; in data set [6], 200 nM; in [7], 2510 nM; in [8], 501 nM. The IC50 in data set [9] was more than 25100 nM; in data set [10] it was 63.1 nM; in data set [11] it was more than 25100 nM; in data set [12] it was more than 25100 nM; in data set [13] it was 39.8 nM.
Regarding `CCCCc1nc(Nc2cccc(C)c2)c2c(=O)[nH]ccc2n1` [NEU-0001191], in [1], the EC50 was 79.4 nM. The solubility kinetic at 1 h in [2] was 22 µM (≈ 6.78 µg/mL). Moreover, the PFI in data set [3] stood at 8.54. Moreover, the IC50 in data set [4] (setting [15]) was 79.4 nM; in data set [4] (setting [14]) it was 6310 nM; in data set [5], more than 25100 nM; in data set [6], 2000 nM; in [7] it was more than 25100 nM; in data set [8], more than 25100 nM. The IC50 is more than 25100 nM in [9]; 158 nM in data set [10]; more than 25100 nM in [11]; more than 25100 nM in data set [12]; 63.1 nM in [13].
